According to the supplement of paper PMC10307832:

Assays:
Assay in all cases: relative viability (nuclei count vs DMSO), 5 days (fraction); higher = more cells survive
[1] = compound: C[C@@H](C(=O)N[C@@H](C1CCCCC1)C(=O)N2CCC[C@H]2C(=O)N[C@@H]3[C@@H](CC4=CC=CC=C34)OCC#CC#CCO[C@@H]5CC6=CC=CC=C6[C@@H]5NC(=O)[C@@H]7CCCN7C(=O)[C@H](C8CCCCC8)NC(=O)[C@H](C)NC)NC [AZD5582] + CC(=O)c1c(C)c2cnc(Nc3ccc(N4CCNCC4)cn3)nc2n(C2CCCC2)c1=O [Palbociclib] (partner 0.5 µM)
Outline: (§1)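 Lung cancer cell lines were pin-tool dosed in 1536-well plates on the day after seeding, with either a lone drug or a fixed anchor-drug dose plus five library-drug doses (not always all listed) in √10 steps. Nuclei were counted on 4× images after 5 days. Relative viability is the ratio of treated-well to vehicle-well nuclei counts, with each value a median of duplicate plates.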

[2] = compound: C[C@@H](C(=O)N[C@@H](C1CCCCC1)C(=O)N2CCC[C@H]2C(=O)N[C@@H]3[C@@H](CC4=CC=CC=C34)OCC#CC#CCO[C@@H]5CC6=CC=CC=C6[C@@H]5NC(=O)[C@@H]7CCCN7C(=O)[C@H](C8CCCCC8)NC(=O)[C@H](C)NC)NC [AZD5582] + NC(=O)Nc1cc(-c2cccc(F)c2)sc1C(=O)N[C@H]1CCCNC1 [AZD7762] (partner 0.2 µM)
Outline: as §1

[3] = compound: Cn1nnc2c(C(N)=O)ncn2c1=O [Temozolomide] + Nc1ncn([C@H]2C[C@H](O)[C@@H](CO)O2)c(=O)n1 [Decitabine] (partner 2 µM)
Outline: as §1

[4] = compound: Cn1nnc2c(C(N)=O)ncn2c1=O [Temozolomide] + C[C@@H](Oc1cc(-c2cnn(C3CCNCC3)c2)cnc1N)c1c(Cl)ccc(F)c1Cl [Crizotinib] (partner 1 µM)
Outline: as §1

Row | Cell Line | relative viability ([1]; first compound 0.001581 µM) | relative viability ([1]; first compound 0.005 µM) | relative viability ([1]; first compound 0.01581 µM) | relative viability ([1]; first compound 0.05 µM) | relative viability ([2]; first compound 0.001581 µM) | relative viability ([2]; first compound 0.005 µM) | relative viability ([2]; first compound 0.01581 µM) | relative viability ([2]; first compound 0.05 µM) | relative viability ([3]; first compound 0.2 µM) | relative viability ([3]; first compound 0.6325 µM) | relative viability ([3]; first compound 2 µM) | relative viability ([3]; first compound 6.325 µM) | relative viability ([3]; first compound 20 µM) | relative viability ([4]; first compound 0.2 µM) | relative viability ([4]; first compound 0.6325 µM) | relative viability ([4]; first compound 2 µM) | relative viability ([4]; first compound 6.325 µM) | relative viability ([4]; first compound 20 µM)
1 | EMC-BAC-2 | 0.472 | 0.527 | 0.503 | 0.513 | 1.07 | 1.06 | 0.996 | 1.04 | 1.01 | 1.05 | 1.01 | 0.993 | 0.927 | 0.842 | 0.74 | 0.789 | 0.768 | 0.804
2 | NCI-H1651 | 0.489 | 0.52 | 0.492 | 0.608 | 0.419 | 0.456 | 0.398 | 0.388 | 0.599 | 0.614 | 0.656 | 0.594 | 0.62 | 0.8 | 0.869 | 0.818 | 0.85 | 0.864
3 | HCC-827 | 0.481 | 0.47 | 0.492 | 0.529 | 0.192 | 0.139 | 0.211 | 0.186 | 0.228 | 0.357 | 0.339 | 0.34 | 0.169 | 0.992 | 0.932 | 0.932 | 0.902 | 0.172
4 | SW 1573 | 0.352 | 0.451 | 0.402 | 0.407 | – | – | – | – | 0.589 | 0.535 | 0.577 | 0.456 | 0.462 | 0.801 | 0.787 | 0.82 | 0.594 | 0.846
5 | NCI-H460 | 0.102 | 0.189 | 0.211 | 0.148 | 0.516 | 0.628 | 0.562 | 0.639 | 0.523 | 0.481 | 0.479 | 0.439 | 0.463 | 0.963 | 0.784 | 0.973 | 0.861 | 0.888
6 | NCI-H1648 | 0.264 | 0.311 | – | 0.274 | 0.462 | 0.649 | – | 0.626 | – | 0.469 | 0.459 | 0.336 | 0.37 | – | – | – | – | –
7 | NCI-H647 | 0.26 | 0.39 | 0.394 | 0.387 | 0.324 | 0.394 | 0.336 | 0.447 | 0.339 | 0.429 | 0.337 | 0.283 | 0.293 | 1.3 | 1.1 | 1.09 | 0.85 | 0.318
8 | NCI-H322M | 0.526 | 0.521 | 0.456 | 0.605 | 0.53 | 0.598 | 0.504 | 0.6 | 0.619 | 0.704 | 0.697 | 0.717 | 0.576 | – | 0.976 | 1 | 0.882 | 0.715
9 | NCI-H1666 | 0.678 | 0.579 | 0.575 | 0.661 | 0.774 | 0.85 | 0.737 | 0.746 | 0.706 | 0.776 | 0.761 | 0.686 | 0.682 | 0.888 | 0.858 | 0.698 | 0.648 | 0.518
10 | NCI-H2342 | 0.492 | 0.518 | 0.491 | 0.54 | 0.429 | 0.43 | 0.49 | 0.556 | 0.737 | 0.771 | 0.666 | 0.676 | 0.803 | – | – | – | – | –
11 | ChaGo-K-1 | 0.882 | 0.943 | 0.921 | 1.01 | 0.794 | 0.874 | 0.816 | 0.837 | 0.521 | 0.524 | 0.529 | 0.54 | 0.507 | 1.3 | 1.16 | 1.15 | 0.646 | 1.12
12 | CAL-12T | 0.2 | 0.225 | 0.309 | 0.159 | 0.423 | 0.468 | 0.485 | 0.405 | – | – | – | – | – | 0.93 | 0.744 | 0.587 | 0.695 | 0.733
13 | LOU-NH91 | 0.529 | 0.54 | 0.487 | 0.532 | 0.715 | 0.833 | 0.704 | 0.742 | 0.699 | 0.801 | 0.849 | 0.815 | 0.634 | 0.557 | 0.758 | 0.75 | 0.704 | 0.532
14 | NCI-H1975 | 0.547 | 0.728 | 0.548 | 0.52 | 0.709 | 0.932 | 0.667 | 0.902 | 0.401 | 0.42 | 0.399 | 0.372 | 0.355 | 1.02 | 0.948 | 1.06 | 0.92 | 0.956
15 | LC-2-ad | 0.465 | 0.535 | 0.46 | 0.543 | 0.821 | 1.04 | 0.801 | 0.929 | 0.795 | 0.766 | 0.775 | 0.874 | 0.665 | 0.455 | 0.443 | 0.51 | 0.443 | 0.437
16 | ABC-1 | 0.658 | 0.834 | 0.492 | 0.625 | 0.59 | 1.13 | 0.72 | 0.572 | 0.931 | 0.878 | 1.59 | 0.94 | 1.24 | 1.11 | 0.91 | 1.14 | 1.17 | 1.34
17 | NCI-H2405 | 0.474 | 0.505 | 0.475 | 0.433 | 0.87 | 0.878 | 0.674 | 0.997 | 0.773 | 0.779 | 0.863 | 0.699 | 0.673 | 0.882 | 0.863 | 0.955 | 0.771 | 0.822
18 | IA-LM | – | – | – | – | – | – | – | – | – | – | – | – | – | 1.27 | 0.719 | 1.09 | 0.706 | 0.962
19 | NCI-H1355 | 0.378 | 0.415 | 0.386 | 0.357 | 0.47 | 0.667 | 0.643 | 0.556 | 0.37 | 0.4 | 0.362 | 0.336 | 0.34 | 1.11 | 1.13 | 1.09 | 1.11 | 0.97
